Results on seven compounds are retold here after ChEMBL document CHEMBL4219129, “Design, synthesis and biological evaluation of spiropyrimidinetriones oxazolidinone derivatives as antibacterial agents” (2018).

Holding throughout (format): functional
Experiment [1] concerns Staphylococcus aureus. The experiment can be described thus: Antibacterial activity against Staphylococcus aureus Mu50 ATCC 700699.
For experiment [2], the system named is Staphylococcus epidermidis. Put plainly: Antibacterial activity against linezolid-resistant Staphylococcus epidermidis 1117174.
Experiment [3] deals with Staphylococcus epidermidis. Put plainly: Antibacterial activity against Staphylococcus epidermidis ATCC 12228.
For experiment [4], the system named is Staphylococcus aureus. Put plainly: Antibacterial activity against methicillin-resistant Staphylococcus aureus 562.
Experiment [5] concerns Staphylococcus epidermidis. The experiment can be described thus: Antibacterial activity against methicillin-resistant Staphylococcus epidermidis ATCC 35984.
Experiment [6] deals with Staphylococcus aureus. Put plainly: Antibacterial activity against linezolid-resistant Staphylococcus aureus O-128.
The subject of experiment [7] is Staphylococcus aureus. Put plainly: Antibacterial activity against PVL positive Staphylococcus aureus.
Experiment [8] has as its system Staphylococcus epidermidis. Put plainly: Antibacterial activity against linezolid-resistant Staphylococcus epidermidis 1089191.
Experiment [9] deals with Staphylococcus aureus. Put plainly: Antibacterial activity against methicillin-resistant Staphylococcus aureus DB-00026.
For experiment [10], the system named is Staphylococcus aureus. Put plainly: Antibacterial activity against Staphylococcus aureus FDA 209P.
Experiment [11] has as its system Staphylococcus aureus. The experiment can be described thus: Antibacterial activity against methicillin-resistant Staphylococcus aureus USA300 BAA-1556.
Experiment [12] relates to Staphylococcus aureus. Put plainly: Antibacterial activity against […] Staphylococcus aureus ATCC 13709 SMITH.
In experiment [13] the test system is Escherichia coli. The experiment can be described thus: Antibacterial activity against TolC-deficient Escherichia coli.
The test system of experiment [14] is Escherichia coli. The experiment can be described thus: Antibacterial activity against Escherichia coli MG1655. The conditions noted are these: K-12 substr. MG1655.
Experiment [15] has as its system Staphylococcus aureus. The experiment can be described thus: Antibacterial activity against methicillin-resistant Staphylococcus aureus 1201984.
The test system of experiment [16] is Staphylococcus aureus. The experiment can be described thus: Antibacterial activity against Staphylococcus aureus ATCC 29213.

The structures appear in SMILES notation. ≈ marks a conversion by molar mass, not a printed value.

Broadly, the MIC is the least concentration at which growth counts as inhibited. Low readings indicate greater potency, high ones weaker potency. `O=C1NC(=O)C2(Cc3cc(-c4ccc(N5C[C@H](CO)OC5=O)cc4F)ccc3N3CCOCC32)C(=O)N1` (some centres not stated): the MIC in the experiment with Staphylococcus aureus [1] was 4 µg/mL (≈ 7.84 µM); in experiment [2], 32 µg/mL (≈ 62.7 µM); in experiment [3], 4 µg/mL (≈ 7.84 µM); against Staphylococcus aureus [4] it was 4 µg/mL (≈ 7.84 µM); in experiment [5], 2 µg/mL (≈ 3.92 µM); with Staphylococcus aureus [6], 32 µg/mL (≈ 62.7 µM). The MIC is 8 µg/mL (≈ 15.7 µM) in the experiment on Staphylococcus aureus [7]; greater than 32 µg/mL in [8]; 8 µg/mL (≈ 15.7 µM) in the experiment with Staphylococcus aureus [9]; 8 µg/mL (≈ 15.7 µM) in the experiment with Staphylococcus aureus [10]; 8 µg/mL (≈ 15.7 µM) against Staphylococcus aureus [11]; 32 µg/mL (≈ 62.7 µM) in the experiment with Staphylococcus aureus [12]. Further, the MIC in the experiment with Escherichia coli [13] was 4 µg/mL (≈ 7.84 µM); in the experiment on Escherichia coli [14], greater than 32 µg/mL; in the experiment on Staphylococcus aureus [15] it was 16 µg/mL (≈ 31.3 µM); in the experiment on Staphylococcus aureus [16], 8 µg/mL (≈ 15.7 µM).

In the case of `COC(=O)NC[C@H]1CN(c2ccc(-c3ccc4c(c3)CC3(C(=O)NC(=O)NC3=O)C3COCCN43)c(F)c2)C(=O)O1` (some centres not stated), the MIC came to 4 µg/mL (≈ 7.05 µM) in the experiment with Staphylococcus aureus [1]; 32 µg/mL (≈ 56.4 µM) in experiment [2]; 4 µg/mL (≈ 7.05 µM) in [3]; 4 µg/mL (≈ 7.05 µM) against Staphylococcus aureus [4]; 2 µg/mL (≈ 3.52 µM) in experiment [5]; 32 µg/mL (≈ 56.4 µM) in the experiment on Staphylococcus aureus [6]. Besides, the MIC against Staphylococcus aureus [7] was 8 µg/mL (≈ 14.1 µM); in experiment [8] it was greater than 32 µg/mL; in the experiment on Staphylococcus aureus [9], 8 µg/mL (≈ 14.1 µM); against Staphylococcus aureus [10] it was 8 µg/mL (≈ 14.1 µM); against Staphylococcus aureus [11], 8 µg/mL (≈ 14.1 µM); against Staphylococcus aureus [12], greater than 32 µg/mL. The MIC is 4 µg/mL (≈ 7.05 µM) against Escherichia coli [13], greater than 32 µg/mL in the experiment on Escherichia coli [14], 16 µg/mL (≈ 28.2 µM) in the experiment with Staphylococcus aureus [15] and 4 µg/mL (≈ 7.05 µM) against Staphylococcus aureus [16].

As to `O=C1NC(=O)C2(Cc3cc(-c4ccc(N5C[C@H](CO)OC5=O)cc4F)ccc3N3CCCC32)C(=O)N1` (some centres not stated), the MIC is 2 µg/mL (≈ 4.04 µM) against Staphylococcus aureus [1]; 32 µg/mL (≈ 64.7 µM) in experiment [2]; 2 µg/mL (≈ 4.04 µM) in experiment [3]; 2 µg/mL (≈ 4.04 µM) with Staphylococcus aureus [4]; no more than 1 µg/mL in experiment [5]; 32 µg/mL (≈ 64.7 µM) in the experiment with Staphylococcus aureus [6]. The MIC in the experiment with Staphylococcus aureus [7] is 4 µg/mL (≈ 8.09 µM); in experiment [8], greater than 32 µg/mL; in the experiment on Staphylococcus aureus [9] it was 8 µg/mL (≈ 16.2 µM); with Staphylococcus aureus [10], 4 µg/mL (≈ 8.09 µM); with Staphylococcus aureus [11], 8 µg/mL (≈ 16.2 µM); against Staphylococcus aureus [12], 32 µg/mL (≈ 64.7 µM). Moreover, the MIC in the experiment with Escherichia coli [13] is 4 µg/mL (≈ 8.09 µM); in the experiment on Escherichia coli [14], greater than 32 µg/mL; against Staphylococcus aureus [15], 4 µg/mL (≈ 8.09 µM); in the experiment with Staphylococcus aureus [16] it was 4 µg/mL (≈ 8.09 µM).

Take `CC(=O)NC[C@H]1CN(c2ccc(-c3ccc4c(c3)CC3(C(=O)NNC3=O)C3CCCN43)c(F)c2)C(=O)O1` (some centres not stated): the MIC in the experiment on Staphylococcus aureus [1] is 4 µg/mL (≈ 7.88 µM); in experiment [2] it was greater than 32 µg/mL; in experiment [3] it was 8 µg/mL (≈ 15.8 µM); against Staphylococcus aureus [4] it was 8 µg/mL (≈ 15.8 µM); in [5], 4 µg/mL (≈ 7.88 µM); against Staphylococcus aureus [6], 32 µg/mL (≈ 63.1 µM). The MIC is 16 µg/mL (≈ 31.5 µM) in the experiment on Staphylococcus aureus [7]; greater than 32 µg/mL in experiment [8]; 8 µg/mL (≈ 15.8 µM) against Staphylococcus aureus [9]; 16 µg/mL (≈ 31.5 µM) in the experiment on Staphylococcus aureus [10]; 8 µg/mL (≈ 15.8 µM) against Staphylococcus aureus [11]; greater than 32 µg/mL with Staphylococcus aureus [12]. Also, the MIC was 16 µg/mL (≈ 31.5 µM) with Escherichia coli [13], greater than 32 µg/mL against Escherichia coli [14], 16 µg/mL (≈ 31.5 µM) with Staphylococcus aureus [15] and 8 µg/mL (≈ 15.8 µM) in the experiment with Staphylococcus aureus [16].

For the compound `CCC(=O)NC[C@H]1CN(c2ccc(-c3ccc4c(c3)CC3(C(=O)NC(=O)NC3=O)C3CCCN43)c(F)c2)C(=O)O1` (some centres not stated), the MIC against Staphylococcus aureus [1] turned out to be 8 µg/mL (≈ 14.6 µM); in experiment [2], 32 µg/mL (≈ 58.2 µM); in experiment [3] it was 8 µg/mL (≈ 14.6 µM); in the experiment on Staphylococcus aureus [4] it was 4 µg/mL (≈ 7.28 µM); in experiment [5] it was 4 µg/mL (≈ 7.28 µM); against Staphylococcus aureus [6], 32 µg/mL (≈ 58.2 µM). Besides, the MIC with Staphylococcus aureus [7] was 8 µg/mL (≈ 14.6 µM); in experiment [8] it was greater than 32 µg/mL; against Staphylococcus aureus [9], 8 µg/mL (≈ 14.6 µM); against Staphylococcus aureus [10] it was 8 µg/mL (≈ 14.6 µM); in the experiment on Staphylococcus aureus [11], 16 µg/mL (≈ 29.1 µM); in the experiment on Staphylococcus aureus [12], 32 µg/mL (≈ 58.2 µM). Besides, the MIC with Escherichia coli [13] was 8 µg/mL (≈ 14.6 µM); against Escherichia coli [14], greater than 32 µg/mL; against Staphylococcus aureus [15] it was 8 µg/mL (≈ 14.6 µM); against Staphylococcus aureus [16] it was 16 µg/mL (≈ 29.1 µM).

Regarding `CCOC(=O)NC[C@H]1CN(c2ccc(-c3ccc4c(c3)CC3(C(=O)NC(=O)NC3=O)C3COCCN43)c(F)c2)C(=O)O1` (some centres not stated), the MIC against Staphylococcus aureus [1] was 8 µg/mL (≈ 13.8 µM); in experiment [2], 32 µg/mL (≈ 55 µM); in [3], 8 µg/mL (≈ 13.8 µM); against Staphylococcus aureus [4], 8 µg/mL (≈ 13.8 µM); in experiment [5], 8 µg/mL (≈ 13.8 µM); with Staphylococcus aureus [6], greater than 32 µg/mL. Also, the MIC is 32 µg/mL (≈ 55 µM) in the experiment with Staphylococcus aureus [7]; greater than 32 µg/mL in experiment [8]; 16 µg/mL (≈ 27.5 µM) with Staphylococcus aureus [9]; 16 µg/mL (≈ 27.5 µM) in the experiment with Staphylococcus aureus [10]; 16 µg/mL (≈ 27.5 µM) against Staphylococcus aureus [11]; greater than 32 µg/mL against Staphylococcus aureus [12]. The MIC in the experiment on Escherichia coli [13] is 8 µg/mL (≈ 13.8 µM); in the experiment with Escherichia coli [14], greater than 32 µg/mL; with Staphylococcus aureus [15], 32 µg/mL (≈ 55 µM); against Staphylococcus aureus [16] it was 16 µg/mL (≈ 27.5 µM).

For the compound `CC(=O)NC[C@H]1CN(c2ccc(-c3ccc4c(c3)CC3(C(=O)NC(=O)NC3=O)C3COCCN43)c(F)c2)C(=O)O1` (some centres not stated), the MIC against Staphylococcus aureus [1] came out at 4 µg/mL (≈ 7.25 µM); in [2], 32 µg/mL (≈ 58 µM); in [3], 4 µg/mL (≈ 7.25 µM); against Staphylococcus aureus [4], 4 µg/mL (≈ 7.25 µM); in experiment [5] it was 2 µg/mL (≈ 3.63 µM); in the experiment on Staphylococcus aureus [6], 32 µg/mL (≈ 58 µM). The minimum inhibitory concentration (MIC) is 8 µg/mL (≈ 14.5 µM) with Staphylococcus aureus [7]; greater than 32 µg/mL in experiment [8]; 8 µg/mL (≈ 14.5 µM) with Staphylococcus aureus [9]; 8 µg/mL (≈ 14.5 µM) in the experiment on Staphylococcus aureus [10]; 8 µg/mL (≈ 14.5 µM) with Staphylococcus aureus [11]; 32 µg/mL (≈ 58 µM) against Staphylococcus aureus [12]. The MIC against Escherichia coli [13] is 2 µg/mL (≈ 3.63 µM); against Escherichia coli [14] it was greater than 32 µg/mL; against Staphylococcus aureus [15], 16 µg/mL (≈ 29 µM); with Staphylococcus aureus [16], 4 µg/mL (≈ 7.25 µM).
